Experimental findings from US9604987B2, “Synthesis of autophagy inducing compound and the uses thereof” (Hong Kong Baptist University, priority 2012, dated 2017) are described below.

Test [1] concerns PC12 cells. Put plainly: Western blot of autophagy marker LC3-II in PC12 cells. The test is classed as cell-based, rat. The settings on record: PC12, 0-25 μM, 24 hours. As to the method: (§1) Native and denatured PAGE and Western blotting analysis. Samples to be run under denaturing conditions were lysed with RIPA lysis buffer (150 mM NaCl, 50 mM Tris-HCl, 0.35% sodium deoxycholate, 1 mM EDTA, 1% NP40, 1 mM PMSF, 5 μg/ml aprotinin, 5 μg/ml leupeptin). Samples for native gels were lysed with detergent-free lysis buffer (50 mM Tris/HCl pH 7.4, 175 mM NaCl, 5 mM EDTA pH 8.0, 1 mM PMSF, 5 μg/ml aprotinin, 5 μg/ml leupeptin), and sheared 5 times through a 28-gauge needle followed by 2 times of sonication for 5 seconds according to previously described protocol. For denaturing, SDS-PAGE was performed using Tris-Glycine SDS running buffer and SDS sample buffer, and for native conditions, native-PAGE was run with detergent-free Tris-Glycine running buffer (BN2007, Invitrogen) and 4× native sample buffer (BN2003, Invitrogen) on a pre-casted native PAGE gel (BN1002BOX, Invitrogen). The proteins on the gels were then transferred to PVDF membrane (RPN303F, GE Healthcare) and processed for immunoblotting. Membranes were blocked with 5% non-fat milk and probed with the appropriate primary and secondary antibodies. The desired bands were visualized using the ECL kit (32106, Pierce). The band density was quantified using the ImageJ program and normalized to that of the control group. […]
A general note: A western blot detects proteins with antibodies after separation by electrophoresis.

Test [2] deals with SH-SY5Y cells. Put plainly: Western blot of autophagy marker LC3-II in SH-SY5Y cells. The test is classed as cell-based, human. To be noted: 0-25 μM, 24 hours. As to the method: as §1
Test [3] concerns WT and A53T α-syn in differentiated DA neurons. Briefly: α-syn degradation in human dopaminergic neurons differentiated from embryonic stem cells. The test is classed as cell-based. From the text: Differentiation of stem cells into dopaminergic neurons. The human embryonic stem (ES) cells were differentiated into dopaminergic neurons according to a previously described protocol with minor changes. Initially, ES cells were digested with dispase (17105041, Invitrogen,) and broken into smaller clusters to form the embryonic bodies. The next day, undifferentiated floating ES cell aggregates were transferred to a new flask. The cells were maintained in DMEM/F12 medium (11320082, Invitrogen) with half medium changed every day for 3 days. On the fourth day, ES cell aggregates were collected by centrifuge and re-suspended in NSM (DMEM/F12 containing 1% N2 supplement (17502048, Invitrogen), 1 μg/ml Heparin (H3149, Sigma), 200 μM NEAA (11140050, Invitrogen) and 2 mM L-glutamine (25030081, Invitrogen)) supplemented with 10% FBS. Embryonic stem cells were transferred to a new flask and medium was changed every other day. Three days later, cell aggregates were transferred to 6-well-plates. The next day, the FBS containing media were replaced with NSM containing 20 ng/ml FGF8 (PHG0184, Invitrogen) and 100 ng/ml SHH (PMC2095, Invitrogen), media were changed every other day. Five days later, the colonies in the dish were detached by pipetting gently with a P1000 pipette. […]

For test [4], the system named is phosphorylated mTOR and P70S6K. Briefly: Western blot of mTOR pathway and other autophagy pathways in N2a cells. The test is classed as cell-based, mouse. The procedure:
FIG. 7: Western blot analysis of expression level of phosphorylated mTOR (p-mTOR) or its substrate P70S6K (p-P70S6K) in N2a cells with treatment of 25 μM Cory B or 0.2 μM rapamycin for 6 hours (FIG. 7A); western blot analysis of Beclin 1 expression in N2a cells with non-target or Beclin 1-specific siRNA treatments followed by Cory B (FIG. 7B)
To elucidate the molecular mechanism of Cory B action, the classic autophagy controlling pathway, the mTOR pathway is first examined.

In the case of `CC[C@@H]1CN2CC[C@]3(C(=O)Nc4ccccc43)C2C[C@@H]1C(=COC)C(=O)OC` (some centres unmarked) [Cory B, Corynoxine B], the LC3-II levels result in test [1] and in test [2] was “increases levels of LC3-II” throughout. In addition, the “WT and A53T α-syn levels” value in test [3] is “dramatically decreases both WT and A53T α-syn levels”. For the same compound, the “phosphorylated mTOR and p-P70S6K levels” value in test [4] (25 μM Cory B or 0.2 μM rapamycin, 6 hours) is given as “neither phosphorylated mTOR nor its substrate P70S6K are affected”. The “AKT, AMPK, MEK/ERK, JNK, ER stress and calcium signaling pathways” value in test [4] (data not shown) is on record as “none of the above mentioned pathways are altered”.
